ChEMBL document CHEMBL5335767, “Synthesis and study of new siderophore analog-ciprofloxacin conjugates with antibiotic activities against Pseudomonas aeruginosa and Burkholderia spp” (Eur J Med Chem, 2023)
Values after ≈ are worked out from the molar mass of the structure shown.

Columns and labels:
Pseudomonas aeruginosa [1] = assay: Antibacterial activity against Pseudomonas aeruginosa PAO1 under muller hinton medium by CLSI protocol based microdilution method; type: functional
[2] = test system: Burkholderia pseudomallei; assay: Antibacterial activity against Burkholderia pseudomallei BPS2020IRBA005 under muller hinton medium by CLSI protocol based microdilution method; type: functional
Pseudomonas aeruginosa [3] = assay: Antibacterial activity against Pseudomonas aeruginosa AM85 under succinate minimum medium by CLSI protocol based microdilution method; type: functional
[4] = test system: Burkholderia pseudomallei; assay: Antibacterial activity against Burkholderia pseudomallei BPS2020IRBA003 under succinate minimum medium by CLSI protocol based microdilution method; type: functional
[5] = test system: Burkholderia thailandensis; assay: Antibacterial activity against Burkholderia thailandensis E264TS32C47 under 1 uM FeCl3 medium by CLSI protocol based microdilution method; type: functional
[6] = test system: Burkholderia thailandensis; assay: Antibacterial activity against Burkholderia thailandensis E264TS32C47 under muller hinton medium by CLSI protocol based microdilution method; type: functional
[7] = test system: Burkholderia thailandensis; assay: Antibacterial activity against Burkholderia thailandensis E264TS32C12 under 1 uM FeCl3 medium by CLSI protocol based microdilution method; type: functional
[8] = test system: Burkholderia pseudomallei; assay: Antibacterial activity against Burkholderia pseudomallei BPS2020IRBA001 under succinate minimum medium by CLSI protocol based microdilution method; type: functional
[9] = test system: Burkholderia pseudomallei; assay: Antibacterial activity against Burkholderia pseudomallei BPS2020IRBA002 under succinate minimum medium by CLSI protocol based microdilution method; type: functional
Pseudomonas aeruginosa [10] = assay: Antibacterial activity against Pseudomonas aeruginosa PAD07 under succinate minimum medium by CLSI protocol based microdilution method; type: functional
Pseudomonas aeruginosa [11] = assay: Antibacterial activity against Pseudomonas aeruginosa PAD07 under 1 uM FeCl3 medium by CLSI protocol based microdilution method; type: functional
[12] = test system: Burkholderia pseudomallei; assay: Antibacterial activity against Burkholderia pseudomallei BPS2020IRBA004 under muller hinton medium by CLSI protocol based microdilution method; type: functional
Pseudomonas aeruginosa [13] = assay: Antibacterial activity against Pseudomonas aeruginosa PAO1 under 1 uM FeCl3 medium by CLSI protocol based microdilution method; type: functional
[14] = test system: Burkholderia pseudomallei; assay: Antibacterial activity against Burkholderia pseudomallei BPS2020IRBA001 under muller hinton medium by CLSI protocol based microdilution method; type: functional
[15] = test system: Burkholderia thailandensis; assay: Antibacterial activity against Burkholderia thailandensis E264TS32C47 under succinate minimum medium by CLSI protocol based microdilution method; type: functional
Pseudomonas aeruginosa [16] = assay: Antibacterial activity against Pseudomonas aeruginosa PAD07 under muller hinton medium by CLSI protocol based microdilution method; type: functional
Pseudomonas aeruginosa [17] = assay: Antibacterial activity against Pseudomonas aeruginosa PAO1 under succinate minimum medium by CLSI protocol based microdilution method; type: functional
[18] = test system: Burkholderia thailandensis; assay: Antibacterial activity against Burkholderia thailandensis E264 under 1 uM FeCl3 medium by CLSI protocol based microdilution method; type: functional
[19] = test system: Burkholderia thailandensis; assay: Antibacterial activity against Burkholderia thailandensis E264TS32C10 under muller hinton medium by CLSI protocol based microdilution method; type: functional
Pseudomonas aeruginosa [20] = assay: Antibacterial activity against Pseudomonas aeruginosa AM85 under muller hinton medium by CLSI protocol based microdilution method; type: functional
[21] = test system: Burkholderia thailandensis; assay: Antibacterial activity against Burkholderia thailandensis E264TS32C10 under 1 uM FeCl3 medium by CLSI protocol based microdilution method; type: functional
[22] = Antibacterial activity against Burkholderia pseudomallei BPS2020IRBA005 under 1 uM FeCl3 medium by CLSI protocol based microdilution method; type: functional; conditions: Burkholderia thailandensis
[23] = test system: Burkholderia thailandensis; assay: Antibacterial activity against Burkholderia thailandensis E264TS32C12 under muller hinton medium by CLSI protocol based microdilution method; type: functional
[24] = test system: Burkholderia thailandensis; assay: Antibacterial activity against Burkholderia thailandensis E264TS32C10 under succinate minimum medium by CLSI protocol based microdilution method; type: functional
[25] = test system: Burkholderia pseudomallei; assay: Antibacterial activity against Burkholderia pseudomallei K96243 under succinate minimum medium by CLSI protocol based microdilution method; type: functional
HepG2 [26] = assay: Cytotoxicity against human HepG2 cells at 23 ug/ml after 48 hrs by CellTiter-Glo luminescent cell viability assay; type: toxicity, cell-based; conditions: hepg2, 48 h, dose 23 µg/ml
[27] = test system: Burkholderia thailandensis; assay: Antibacterial activity against Burkholderia thailandensis E264 under succinate minimum medium by CLSI protocol based microdilution method; type: functional
[28] = test system: Burkholderia pseudomallei; assay: Antibacterial activity against Burkholderia pseudomallei BPS2020IRBA003 under 1 uM FeCl3 medium by CLSI protocol based microdilution method; type: functional
[29] = test system: Burkholderia pseudomallei; assay: Antibacterial activity against Burkholderia pseudomallei BPS2020IRBA005 under succinate minimum medium by CLSI protocol based microdilution method; type: functional
[30] = test system: Burkholderia pseudomallei; assay: Antibacterial activity against Burkholderia pseudomallei K96243 under muller hinton medium by CLSI protocol based microdilution method; type: functional
[31] = test system: Burkholderia thailandensis; assay: Antibacterial activity against Burkholderia thailandensis E264 under muller hinton medium by CLSI protocol based microdilution method; type: functional
[32] = test system: Burkholderia thailandensis; assay: Antibacterial activity against Burkholderia thailandensis E264TS32C12 under succinate minimum medium by CLSI protocol based microdilution method; type: functional
[33] = test system: Burkholderia pseudomallei; assay: Antibacterial activity against Burkholderia pseudomallei BPS2020IRBA003 under muller hinton medium by CLSI protocol based microdilution method; type: functional
[34] = test system: Burkholderia pseudomallei; assay: Antibacterial activity against Burkholderia pseudomallei BPS2020IRBA001 under 1 uM FeCl3 medium by CLSI protocol based microdilution method; type: functional
[35] = test system: Burkholderia pseudomallei; assay: Antibacterial activity against Burkholderia pseudomallei K96243 under 1 uM FeCl3 medium by CLSI protocol based microdilution method; type: functional
[36] = test system: Burkholderia pseudomallei; assay: Antibacterial activity against Burkholderia pseudomallei BPS2020IRBA002 under 1 uM FeCl3 medium by CLSI protocol based microdilution method; type: functional
[37] = test system: Burkholderia pseudomallei; assay: Antibacterial activity against Burkholderia pseudomallei BPS2020IRBA002 under muller hinton medium by CLSI protocol based microdilution method; type: functional
Pseudomonas aeruginosa [38] = assay: Antibacterial activity against Pseudomonas aeruginosa AM85 under 1 uM FeCl3 medium by CLSI protocol based microdilution method; type: functional
HepG2 [39] = assay: Cytotoxicity against human HepG2 cells at 25 ug/ml after 48 hrs by CellTiter-Glo luminescent cell viability assay; type: toxicity, cell-based; conditions: hepg2, 48 h, dose 25 µg/ml

Compound | MIC (Pseudomonas aeruginosa [1]) | MIC [2] | MIC (Pseudomonas aeruginosa [3]) | MIC [4] | MIC [5] | MIC [6] | MIC [7] | MIC [8] | MIC [9] | MIC (Pseudomonas aeruginosa [10]) | MIC (Pseudomonas aeruginosa [11]) | MIC [12] | MIC (Pseudomonas aeruginosa [13]) | MIC [14] | MIC [15] | MIC (Pseudomonas aeruginosa [16]) | MIC (Pseudomonas aeruginosa [17]) | MIC [18] | MIC [19] | MIC (Pseudomonas aeruginosa [20]) | other results
O=C(O)c1cn(C2CC2)c2cc(N3CCN(C(=O)c4cccc(O)c4O)CC3)c(F)cc2c1=O | 16 µg/mL (≈ 34.2 µM) | 64 µg/mL (≈ 137 µM) | 128 µg/mL (≈ 274 µM) | 8 µg/mL (≈ 17.1 µM) | 8 µg/mL (≈ 17.1 µM) | 16 µg/mL (≈ 34.2 µM) | 16 µg/mL (≈ 34.2 µM) | 32 µg/mL (≈ 68.5 µM) | 8 µg/mL (≈ 17.1 µM) | 1 µg/mL (≈ 2.14 µM) | 8 µg/mL (≈ 17.1 µM) | 32 µg/mL (≈ 68.5 µM) | 32 µg/mL (≈ 68.5 µM) | 32 µg/mL (≈ 68.5 µM) | 8 µg/mL (≈ 17.1 µM) | 8 µg/mL (≈ 17.1 µM) | 32 µg/mL (≈ 68.5 µM) | 8 µg/mL (≈ 17.1 µM) | 32 µg/mL (≈ 68.5 µM) | > 128 µg/mL | MIC [21]: 32 µg/mL (≈ 68.5 µM); MIC [22]: 8 µg/mL (≈ 17.1 µM); MIC [23]: 32 µg/mL (≈ 68.5 µM); MIC [24]: 32 µg/mL (≈ 68.5 µM); MIC [25]: 2 µg/mL (≈ 4.28 µM); Activity (HepG2 [26]): Non-Toxic; MIC [27]: 8 µg/mL (≈ 17.1 µM); MIC [28]: 16 µg/mL (≈ 34.2 µM); MIC [29]: 8 µg/mL (≈ 17.1 µM); MIC [30]: 8 µg/mL (≈ 17.1 µM); MIC [31]: 16 µg/mL (≈ 34.2 µM); MIC [32]: 16 µg/mL (≈ 34.2 µM); MIC [33]: 16 µg/mL (≈ 34.2 µM); MIC [34]: 32 µg/mL (≈ 68.5 µM); MIC [35]: 4 µg/mL (≈ 8.56 µM); MIC [36]: 16 µg/mL (≈ 34.2 µM); MIC [37]: 16 µg/mL (≈ 34.2 µM); MIC (Pseudomonas aeruginosa [38]): > 128 µg/mL
O=C(O)c1cn(C2CC2)c2cc(N3CCN(C(=O)c4ccc(O)c(O)c4Cl)CC3)c(F)cc2c1=O | 32 µg/mL (≈ 63.8 µM) | > 128 µg/mL | > 128 µg/mL | 128 µg/mL (≈ 255 µM) | 128 µg/mL (≈ 255 µM) | 128 µg/mL (≈ 255 µM) | 128 µg/mL (≈ 255 µM) | 128 µg/mL (≈ 255 µM) | > 128 µg/mL | 1 µg/mL (≈ 1.99 µM) | 16 µg/mL (≈ 31.9 µM) | > 128 µg/mL | 16 µg/mL (≈ 31.9 µM) | > 128 µg/mL | 128 µg/mL (≈ 255 µM) | 32 µg/mL (≈ 63.8 µM) | 16 µg/mL (≈ 31.9 µM) | 64 µg/mL (≈ 128 µM) | > 128 µg/mL | > 128 µg/mL | MIC [21]: > 128 µg/mL; MIC [22]: > 128 µg/mL; MIC [23]: > 128 µg/mL; MIC [24]: > 128 µg/mL; Activity (HepG2 [39]): Non-Toxic; MIC [25]: 32 µg/mL (≈ 63.8 µM); MIC [27]: 128 µg/mL (≈ 255 µM); MIC [28]: > 128 µg/mL; MIC [29]: > 128 µg/mL; MIC [30]: 64 µg/mL (≈ 128 µM); MIC [31]: 128 µg/mL (≈ 255 µM); MIC [32]: 128 µg/mL (≈ 255 µM); MIC [33]: 128 µg/mL (≈ 255 µM); MIC [34]: 128 µg/mL (≈ 255 µM); MIC [35]: 16 µg/mL (≈ 31.9 µM); MIC [36]: > 128 µg/mL; MIC [37]: > 128 µg/mL; MIC (Pseudomonas aeruginosa [38]): > 128 µg/mL
O=C(O)c1cn(C2CC2)c2cc(N3CCN(C(=O)c4cc(=O)c(O)c[nH]4)CC3)c(F)cc2c1=O | 32 µg/mL (≈ 68.3 µM) | > 128 µg/mL | > 128 µg/mL | > 128 µg/mL | > 128 µg/mL | > 128 µg/mL | > 128 µg/mL | > 128 µg/mL | > 128 µg/mL | 2 µg/mL (≈ 4.27 µM) | 16 µg/mL (≈ 34.2 µM) | > 128 µg/mL | 32 µg/mL (≈ 68.3 µM) | > 128 µg/mL | > 128 µg/mL | 32 µg/mL (≈ 68.3 µM) | 32 µg/mL (≈ 68.3 µM) | > 128 µg/mL | 32 µg/mL (≈ 68.3 µM) | > 128 µg/mL | MIC [21]: > 128 µg/mL; MIC [22]: > 128 µg/mL; MIC [23]: > 128 µg/mL; MIC [24]: > 128 µg/mL; MIC [25]: > 128 µg/mL; Activity (HepG2 [26]): Non-Toxic; MIC [27]: > 128 µg/mL; MIC [28]: > 128 µg/mL; MIC [29]: > 128 µg/mL; MIC [30]: > 128 µg/mL; MIC [31]: > 128 µg/mL; MIC [32]: > 1.8 µg/mL; MIC [33]: > 128 µg/mL; MIC [34]: > 128 µg/mL; MIC [35]: > 128 µg/mL; MIC [36]: > 128 µg/mL; MIC [37]: > 128 µg/mL; MIC (Pseudomonas aeruginosa [38]): > 128 µg/mL
